Measured values as given in ChEMBL document CHEMBL5356986, “Research status of indole-modified natural products” (RSC Med Chem, 2023).

Experiments:
HL-60 = experiment: Cytotoxicity against human HL-60 cells assessed as reduction in cell viability incubated for 48 hrs by MTT assay; format: functional, cell-based; conditions: HL-60, 48 h
[1] = Cytotoxicity against human A549 cells assessed as cell growth inhibition measured after 24 hrs by MTT assay; format: functional, cell-based
SMMC-7721 = experiment: Cytotoxicity against human SMMC-7721 cells assessed as reduction in cell viability incubated for 48 hrs by MTT assay; format: functional, cell-based; conditions: SMMC-7721, 48 h
MCF7 [2] = experiment: Cytotoxicity against human MCF7 cells assessed as reduction in cell growth; format: functional, cell-based
SW480 = experiment: Cytotoxicity against human SW480 cells assessed as cell growth inhibition; format: functional, cell-based
K562 = experiment: Antiproliferative activity against human K562 cells assessed as cell growth inhibition by MTT assay; format: functional, cell-based
[3] = Antioxidant activity assessed as DPPH radical scavenging activity measured after 30 mins; format: functional
MCF7 [4] = experiment: Cytotoxicity against human MCF7 cells assessed as reduction in cell viability after 48 hrs by SRB assay; format: functional, cell-based; conditions: MCF7, 48 h
A549 [5] = experiment: Antiproliferative activity against human A549 cells assessed as reduction in cell viability by MTT assay; format: functional, cell-based
Staphylococcus aureus = experiment: Antibacterial activity against Staphylococcus aureus assessed as reduction in microbial growth; format: functional
Bacillus subtilis = experiment: Antibacterial activity against Bacillus subtilis assessed as reduction in microbial growth; format: functional
Escherichia coli = experiment: Antibacterial activity against Escherichia coli assessed as reduction in bacterial cell viability; format: functional
Klebsiella pneumoniae = experiment: Antibacterial activity against Klebsiella pneumoniae assessed as reduction in bacterial growth by broth microdilution method; format: functional
Aspergillus niger = experiment: […] against Aspergillus niger assessed as […] incubated for 24 hrs by agar disc diffusion assay; format: functional
Candida albicans = experiment: Antibacterial activity against Candida albicans assessed as reduction in bacterial growth; format: functional
Fusarium oxysporum = experiment: Antifungal activity against Fusarium oxysporum assessed as inhibition of fungal growth; format: functional
RPMI-8226 = experiment: Growth inhibition of human RPMI-8226 cells; format: functional
CCRF-CEM = experiment: Growth inhibition of human CCRF-CEM cells; format: functional
[6] = tested on: Human immunodeficiency virus 1; experiment: Antiviral activity against HIV-1 harboring integrase L74M mutant; format: functional, organism-based
A549 [7] = experiment: Antiproliferative activity against human A549 cells assessed as reduction in cell viability incubated for 48 hrs by MTT assay; format: functional, cell-based; conditions: A549, 48 h
[8] = Antioxidant activity assessed as DPPH radical scavenging activity; format: functional
HeLa [9] = experiment: Cytotoxicity against human HeLa cells assessed as reduction in cell viability; format: functional, cell-based
MDA-MB-453 = experiment: Antiproliferative activity against human MDA-MB-453 cells assessed as reduction in cell growth after 72 hrs by MTT assay; format: functional, cell-based; conditions: MDA-MB-453, 72 h
CAMA-1 = experiment: Antiproliferative activity against human CAMA-1 cells assessed as cell growth inhibition; format: functional, cell-based
MCF7 [10] = experiment: Cytotoxicity against human MCF7 cells assessed as reduction in cell viability by MTS assay; format: functional, cell-based
HCT-116 = experiment: Cytotoxicity against human HCT-116 cells assessed as reduction in cell viability by MTS assay; format: functional, cell-based
H4 = experiment: Antiproliferative activity against human H4 cells assessed as cell growth inhibition; format: functional, cell-based
Bel-7402 = experiment: Cytotoxicity against human Bel-7402 cells assessed as reduction in cell viability measured after 72 hrs by MTT assay; format: functional, cell-based; conditions: Bel-7402, 72 h
Alpha glucosidase = Alpha glucosidase (Homo sapiens, UniProt O43451+P10253+P14410+Q2M2H8); experiment: Inhibition of alpha glucosidase (unknown origin) measured after 60 mins; format: protein assay
HeLa [11] = experiment: Antiproliferative activity against human HeLa cells assessed as inhibition of cell growth incubated for 72 hrs by MTT assay; format: functional, cell-based
HT-29 = experiment: Antiproliferative activity against human HT-29 cells assessed as inhibition of cell proliferation by MTT assay; format: functional, cell-based
MCF7 [12] = experiment: Antiproliferative activity against human MCF7 cells assessed as inhibition of cell growth after overnight incubation by MTT assay; format: functional, cell-based

Q: With `COC(=O)C1=CO[C@@H](OC)[C@@H]2C(C(NCCc3c[nH]c4ccccc34)NCCc3c[nH]c4ccccc34)=CC[C@H]12` as the molecule, how does the IC50 (HL-60) read?
A: Its IC50 is 900 nM.

Q: What about the IC50 [1] of the same molecule?
A: The IC50 was 3640 nM.

Q: What about the IC50 (SMMC-7721) of the same molecule?
A: The IC50 was 3520 nM.

Q: And the IC50 (MCF7 [2])?
A: Its IC50 is 3100 nM.

Q: And the IC50 (SW480)?
A: The IC50 was 2530 nM.

Q: Which IC50 (K562) does the source give for `COc1cc([C@@H]2c3cc4c(cc3[C@H](OC(=O)c3ccc5cc[nH]c5c3)[C@H]3COC(=O)[C@H]23)OCO4)cc(OC)c1OC` here?
A: The IC50 was 100 nM.

Q: Which EC50 [3] does the source give for `O=C(/C=C/c1ccc(O)c(O)c1)Nc1ccc2[nH]ccc2c1` here?
A: Its EC50 is 51000 nM.

Q: What does the source list for `C[C@@H]1CC[C@H]2[C@@H](C)C(OC(=O)c3cc4ccccc4[nH]3)O[C@@H]3O[C@@]4(C)CC[C@@H]1[C@]32OO4` (some centres undefined)?
A: IC50 (MCF7 [4]): 6780 nM; IC50 (A549 [5]): 12900 nM

Q: For GENTAMICIN, which MIC (Staphylococcus aureus) is on record?
A: The MIC was 26 µg/mL.

Q: And the MIC (Bacillus subtilis)?
A: Its MIC is 28 µg/mL.

Q: And the MIC (Escherichia coli)?
A: The MIC was 26 µg/mL.

Q: What about the MIC (Klebsiella pneumoniae) of the same molecule?
A: Its MIC is 26 µg/mL.

Q: What about the MIC (Aspergillus niger) of the same molecule?
A: The MIC was 27 µg/mL.

Q: And the MIC (Candida albicans)?
A: Its MIC is 28 µg/mL.

Q: And the MIC (Fusarium oxysporum)?
A: Its MIC is 27 µg/mL.

Q: For `C=C1C(=O)O[C@@H]2C3O[C@]3(C)CC/C=C(\C)CC[C@@H]12` (some centres undefined), which GI50 (RPMI-8226) is on record?
A: The GI50 was 8200 nM.

Q: And the GI50 (CCRF-CEM)?
A: The GI50 was 9160 nM.

Q: For `C=C(C)[C@@H]1CC[C@]2(C(=O)O)CC[C@]3(C)[C@H](CC[C@@H]4[C@@]5(C)CC[C@H](OC(=O)CC(C)(C)C(=O)O)C(C)(C)[C@@H]5CC[C@]43C)[C@@H]12` [BEVIRIMAT], which IC50 [6] is on record?
A: Its IC50 is 65 nM.

Q: With `COc1cc([C@@H]2c3cc4c(cc3[C@H](NC(=O)c3cc5c([nH]c6ccccc65)c(-c5ccc(F)c(F)c5)n3)[C@H]3COC(=O)[C@H]23)OCO4)cc(OC)c1OC` as the molecule, how does the IC50 (A549 [7]) read?
A: The IC50 was 2240 nM.

Q: With `O=C1O[C@H]([C@@H](O)CO)C([O-])=C1O.[Na+]` [SODIUM ASCORBATE] as the molecule, how does the IC50 [8] read?
A: The IC50 was 12800 nM.

Q: What does the source list for `C=C1C(=O)O[C@H]2[C@H]1CC1C(COC(=O)/C=C/c3c[nH]c4ccccc34)=CCC[C@@]3(C)O[C@@]123` (some centres undefined)?
A: GI50 (RPMI-8226): 30 nM; GI50 (CCRF-CEM): 70 nM

Q: With `COc1ccc(/C=C\c2cc(OC)c(OC)c(OC)c2)cc1O` [COMBRETASTATIN A4] as the molecule, how does the IC50 (HeLa [9]) read?
A: Its IC50 is 210 nM.

Q: For `CC1(C)CCC(C)(C)c2cc(C(=O)/C=C/c3c[nH]c4ccccc34)ccc21`, which IC50 (MDA-MB-453) is on record?
A: The IC50 was less than 10 nM.

Q: What about the IC50 (CAMA-1) of the same molecule?
A: The IC50 was less than 10 nM.

Q: With `COc1ccc(OC)c(-c2nc(C(=O)N[C@H]3c4cc5c(cc4[C@@H](c4cc(OC)c(OC)c(OC)c4)[C@H]4C(=O)OC[C@@H]43)OCO5)cc3c2[nH]c2ccccc23)c1` as the molecule, how does the IC50 (A549 [7]) read?
A: Its IC50 is 1870 nM.

Q: For `C=C1CC[C@H]2[C@@](C)(Cc3c([nH]c4ccccc34)[C@@]2(C)COC(C)=O)[C@@H]1C/C=C1\C=COC1=O`, which IC50 (MCF7 [10]) is on record?
A: Its IC50 is 1850 nM.

Q: What about the IC50 (HCT-116) of the same molecule?
A: Its IC50 is 1220 nM.

Q: For `C=C(C)[C@@H]1CC[C@]2(C(=O)N3CCN(C(=O)/C=C/c4ccc5[nH]ccc5c4)CC3)CC[C@]3(C)[C@H](CC[C@@H]4[C@@]5(C)CC[C@H](OC(=O)CC(C)(C)C(=O)O)C(C)(C)[C@@H]5CC[C@]43C)[C@@H]12`, which IC50 [6] is on record?
A: The IC50 was 50 nM.

Q: With `O=C(/C=C/c1ccc(O)c(O)c1)NCCc1c[nH]c2ccc(O)cc12` [N-CAFFEOYLSEROTONIN] as the molecule, how does the EC50 [3] read?
A: Its EC50 is 8100 nM.

Q: Which results are given for `C=C1C(=O)O[C@H]2[C@H]1CC1C(COC(=O)c3cc4ccccc4[nH]3)=CCC[C@@]3(C)O[C@@]123` (some centres undefined)?
A: GI50 (RPMI-8226): 260 nM; GI50 (CCRF-CEM): 280 nM

Q: With `CC1=C(O)C(=O)C=C2C1=CC=C1[C@@]2(C)CC[C@@]2(C)[C@@H]3C[C@](C)(C(=O)O)CC[C@]3(C)CC[C@]12C` [CELASTROL] as the molecule, how does the IC50 (H4) read?
A: The IC50 was 2090 nM.

Q: What about the IC50 (Bel-7402) of the same molecule?
A: The IC50 was 1550 nM.

Q: Which IC50 (Alpha glucosidase) does the source give for `C=C(C)[C@@H]1CC[C@]2(C(=O)O)CC[C@]3(C)[C@H](CC[C@@H]4[C@@]5(C)Cc6c([nH]c7ccccc67)C(C)(C)[C@@H]5CC[C@]43C)[C@@H]12` here?
A: The IC50 was 40 nM.

Q: For `COC(=O)c1[nH]c2ccc(OC)cc2c1/C=C/C(=O)c1cc(OC)c(OC)c(OC)c1`, which IC50 (HeLa [11]) is on record?
A: Its IC50 is 2400 nM.

Q: And the IC50 (HT-29)?
A: The IC50 was 1000 nM.

Q: And the IC50 (MCF7 [12])?
A: Its IC50 is 590 nM.
